According to US6733996B2, “Methods for regulating gene expression using light” (Trustees of Dartmouth College, priority 2002, dated 2004):

Target: T1, WC-1/WC-2 (White Collar Complex) (Neurospora crassa, UniProt Q01371)
T1 construct: in vitro transcribe/translate full-length WC-1 using pAF60 as template and full length WC-2 using pGEM®/WC-2 as template; made in house; host or cells: cell-free: TNT-Coupled Reticulocyte Lysate system (Promega), templates pAF60 (WC-1) and pGEM/WC-2
Assay: Electrophoretic mobility shift assay of in vitro-translated WC-1 and WC-2 binding to frq LRE probe, with or without flavin cofactor and light
Details: for Average amount of faster migrating complex ± SEM / Average amount of slower migrating complex ± SEM: +FAD (1 mM in translation reaction), in vitro-translated WC-1 and WC-2, densitometry; for Light regulation of LRE binding of in vitro-translated WC-1/WC-2: flavin added to the WC-1 translation reaction, 1 mM
Procedure: In vitro coupled transcription/translation was conducted to produce WC-1 and WC-2 proteins for subsequent use in binding reactions. WC-1 and WC-2 together were able to bind to the LREs as not just one, but two distinct complexes with mobilities similar to those seen using nuclear extracts. […] These complexes were not seen when either protein was used alone or when unprogrammed lysate was used.
In vitro translation experiments and subsequent binding reactions were repeated, this time adding FMN or flavin adenine dinucleotide (FAD) to the WC-1 translation reaction. FAD is the flavin cofactor for both the blue light-sensing cryptochromes (Cashmore, et al. (1999) Science 284:760) and the Euglena photoactivated adenyl cyclase (Iseki, et al. (2001) Nature 415:1047).
When FAD was combined with WC-1 and WC-2, light caused a marked increase in the amount of slower migrating complex relative to the reactions not treated with light. Furthermore, a marked increase in the slower migrating complex was observed, as compared to reactions lacking FAD treated with or without light. […] The addition of FAD confers light responsiveness to the WCC, similar to that seen with the nuclear extracts. In the dark, a faster migrating WC-1/WC-2 dimeric complex dominates, yielding in the presence of light to a larger, slower migrating WC-1/WC-2 multimeric complex. WC-1 with FAD, exposed to light in the absence of WC-2, can initiate the mobility shift when subsequently combined in the dark with WC-2. Furthermore, WC-1 can be reconstituted with free FAD after in vitro translation. Thus, it is WC-1 that is the initial active protein partner in mediating the photoresponse.
The probes consisted of two oligonucleotides of equal length annealed together and end-labeled using T4 polynucleotide kinase and [^γ-32P]ATP. Unincorporated ATP was removed using a BIO-GEL® P-30 chromatography column (BIO-RAD®, Hercules, Calif.), and probe was diluted to a final concentration of 0.018 μM. Oligonucleotide pairs were annealed for use as probe or unlabeled competitor. Distal LRE probe, the unrelated 42 bp competitor, and the mutated distal LRE competitor were generated with oligonucleotide pairs ACF57/ACF58, ACF40/ACF48 and ACF67/ACF68, respectively. The proximal LRE probe and mutated proximal LRE competitor were generated with oligonucleotide pairs ACF62/ACF63 and ACF69/ACF70, respectively.
Binding reactions using nuclear protein extracts contained 1× binding buffer, […], 0.1 μg poly(dI-dC), 1 μl probe, 0.5 μl of normal rabbit sera (Pocono Rabbit Farm, Canadensis, Pa.), and 3 μg of nuclear protein extract, which was added last to the binding reactions, in a total volume of 20 μl. In reactions that contained antisera, 1 μl anti-WC-1, 1 μl anti-WC-2, or 0.5 μl anti-FRQ was used. Binding reactions using in vitro translated proteins contained 1× binding buffer, 1 μg poly(dI-dC), 1 μl probe, and 6 μl of the in vitro translation reaction in a total volume of 20 μl . Binding reactions were incubated for 30 minutes on ice prior to electrophoresis at 4° C. on nondenaturing 4% polyacrylamide gels containing 0.5×TBE and 2.5% (v/v) glycerol. Gels were dried and visualized using a PhosphorImager and IMAGEQUANT® software (Molecular Dynamics, Sunnyvale, Calif.). Binding reactions and gel electrophoreses were performed under red lights.
TNT®-Coupled Reticulocyte Lysate system (PROMEGA®, Madison, Wis.) was used according to the manufacturer's directions to in vitro transcribe/translate full-length WC-1 using pAF60 as template and full length WC-2 using pGEM®/WC-2 as template. 8 μM ZnCl2 was added to each reaction. Where indicated, FAD (SIGMA®, St. Louis, Mo.) and FMN (SIGMA®, St. Louis, Mo.) were added to a final concentration of 1 mM. Reactions were conducted under red lights.

T1 sequence (Q01371 whole entry): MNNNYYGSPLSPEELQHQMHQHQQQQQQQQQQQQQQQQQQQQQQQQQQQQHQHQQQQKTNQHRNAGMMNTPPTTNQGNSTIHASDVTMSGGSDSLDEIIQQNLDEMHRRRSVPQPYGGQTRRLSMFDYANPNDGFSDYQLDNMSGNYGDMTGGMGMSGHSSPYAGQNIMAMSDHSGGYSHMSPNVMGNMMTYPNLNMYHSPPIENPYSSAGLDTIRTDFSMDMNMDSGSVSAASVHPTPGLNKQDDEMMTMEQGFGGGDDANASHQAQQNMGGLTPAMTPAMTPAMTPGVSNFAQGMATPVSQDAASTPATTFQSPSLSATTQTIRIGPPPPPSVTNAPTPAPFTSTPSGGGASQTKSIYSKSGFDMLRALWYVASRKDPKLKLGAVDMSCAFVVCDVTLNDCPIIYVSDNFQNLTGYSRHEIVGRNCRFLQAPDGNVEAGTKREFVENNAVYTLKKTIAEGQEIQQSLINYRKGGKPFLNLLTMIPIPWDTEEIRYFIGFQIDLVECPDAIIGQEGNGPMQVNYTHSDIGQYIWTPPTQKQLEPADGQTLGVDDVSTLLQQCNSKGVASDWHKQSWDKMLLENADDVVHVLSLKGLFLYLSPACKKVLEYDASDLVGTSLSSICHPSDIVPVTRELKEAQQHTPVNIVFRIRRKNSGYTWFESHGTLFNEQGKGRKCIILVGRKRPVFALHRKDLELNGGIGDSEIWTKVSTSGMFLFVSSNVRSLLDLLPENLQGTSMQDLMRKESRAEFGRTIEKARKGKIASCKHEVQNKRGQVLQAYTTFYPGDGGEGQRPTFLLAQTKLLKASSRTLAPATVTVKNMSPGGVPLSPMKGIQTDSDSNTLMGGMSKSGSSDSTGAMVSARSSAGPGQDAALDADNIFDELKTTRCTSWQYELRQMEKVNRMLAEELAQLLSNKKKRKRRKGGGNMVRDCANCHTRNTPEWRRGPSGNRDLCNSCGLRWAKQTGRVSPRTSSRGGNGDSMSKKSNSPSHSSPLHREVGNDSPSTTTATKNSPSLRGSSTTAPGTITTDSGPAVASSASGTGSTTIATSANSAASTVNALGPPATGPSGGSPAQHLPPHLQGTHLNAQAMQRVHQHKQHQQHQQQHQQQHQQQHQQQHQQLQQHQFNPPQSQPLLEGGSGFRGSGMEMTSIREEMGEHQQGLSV
T1 sequence (P78714 whole entry, further chain): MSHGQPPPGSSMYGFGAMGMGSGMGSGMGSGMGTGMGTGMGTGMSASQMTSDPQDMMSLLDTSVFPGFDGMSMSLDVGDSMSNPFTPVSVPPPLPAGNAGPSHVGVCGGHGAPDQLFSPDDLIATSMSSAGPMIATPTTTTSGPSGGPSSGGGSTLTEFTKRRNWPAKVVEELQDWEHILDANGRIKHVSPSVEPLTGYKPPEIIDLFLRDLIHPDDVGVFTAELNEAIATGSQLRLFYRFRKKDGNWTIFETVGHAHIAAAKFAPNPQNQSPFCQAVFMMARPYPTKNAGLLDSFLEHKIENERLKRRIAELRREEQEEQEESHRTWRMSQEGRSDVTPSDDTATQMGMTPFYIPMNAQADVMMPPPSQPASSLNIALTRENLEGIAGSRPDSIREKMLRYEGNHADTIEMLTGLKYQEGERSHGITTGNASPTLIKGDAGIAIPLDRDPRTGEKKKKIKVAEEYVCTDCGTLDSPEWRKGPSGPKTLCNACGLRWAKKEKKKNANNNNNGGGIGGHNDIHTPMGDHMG

SMILES	Average amount of faster migrating complex ± SEM (Dark)	Average amount of slower migrating complex ± SEM (Dark)	Average amount of faster migrating complex ± SEM (Light)	Average amount of slower migrating complex ± SEM (Light)	Light regulation of LRE binding of in vitro-translated WC-1/WC-2
Cc1cc2nc3c(=O)[nH]c(=O)nc-3n(C[C@H](O)[C@H](O)[C@H](O)COP(=O)(O)OP(=O)(O)OC[C@H]3O[C@@H](n4cnc5c(N)ncnc54)[C@H](O)[C@@H]3O)c2cc1C [FAD, flavin adenine dinucleotide]	334119 ± 43086	56912 ± 3055	264723 ± 22687	237163 ± 9706	conferred light sensitivity
Cc1cc2nc3c(=O)[nH]c(=O)nc-3n(C[C@H](O)[C@H](O)[C@H](O)COP(=O)(O)O)c2cc1C [FMN, flavin mononucleotide]	–	–	–	–	No light regulation of binding
